Measured values: patent publication US4291164A, “Cephalosporin analogs and methods for production thereof” (Kyowa Hakko Kogyo Co., Ltd., priority 1978, dated 1981)
In brackets after ≈: the same amount, converted by molar mass. Read-outs that look alike come from different tables or passages of the source.

How the values were obtained:
Assay type in all cases: cell-based
[1] = tested on: Escherichia coli NIHJC2; test: Antibacterial activity, Heart Infusion Agar Dilution Method, Escherichia coli NIHJC2
Description: (§1) The antibacterial activity of the compounds obtained in the above Examples 24, 26, 28, 30, 32, 34, 36, 38, 40 and 41 are determined by Heart Infusion Agar Dilution Method (pH 7.2). Cefazolin is used as a reference.

[2] = tested on: Pseudomonas putida F264; test: Antibacterial activity, Heart Infusion Agar Dilution Method, Pseudomonas putida F264; details: pH 7.2, read-out: Minimum Inhibitory Concentration
[3] = tested on: Proteus mirabilis 1287; test: Antibacterial activity, Heart Infusion Agar Dilution Method, Proteus mirabilis 1287; details: for MIC: pH 7.2, read-out: Minimum Inhibitory Concentration
Description: as §1

[4] = tested on: Klebsiella pneumoniae Y60; test: Antibacterial activity, Heart Infusion Agar Dilution Method, Klebsiella pneumoniae Y60; details: for MIC: pH 7.2, read-out: Minimum Inhibitory Concentration
[5] = tested on: Serratia marcescens T55; test: Antibacterial activity, Heart Infusion Agar Dilution Method, Serratia marcescens T55; details: for MIC: pH 7.2, read-out: Minimum Inhibitory Concentration
[6] = tested on: Escherichia coli Juhl; test: Antibacterial activity, Heart Infusion Agar Dilution Method, Escherichia coli Juhl
[7] = tested on: Staphylococcus epidermidis; test: Antibacterial activity, Heart Infusion Agar Dilution Method, Staphylococcus epidermidis; details: pH 7.2, read-out: Minimum Inhibitory Concentration
Description: as §1

[8] = tested on: Proteus morganii KY4298; test: Antibacterial activity, Heart Infusion Agar Dilution Method, Proteus morganii KY4298; details: for MIC: Morganella morganii, pH 7.2, read-out: Minimum Inhibitory Concentration
Description: as §1

[9] = tested on: Klebsiella pneumoniae 8045; test: Antibacterial activity, Heart Infusion Agar Dilution Method, Klebsiella pneumoniae 8045; details: for MIC: pH 7.2, read-out: Minimum Inhibitory Concentration
Description: as §1

[10] = tested on: Pseudomonas aeruginosa 145; test: Antibacterial activity, Heart Infusion Agar Dilution Method, Pseudomonas aeruginosa 145; details: Pseudomonas aeruginosa, 145, pH 7.2; read-out: Minimum Inhibitory Concentration
Description: as §1

[11] = tested on: Staphylococcus aureus Smith; test: Antibacterial activity, Heart Infusion Agar Dilution Method, Staphylococcus aureus Smith; details: pH 7.2, read-out: Minimum Inhibitory Concentration
Description: as §1

[12] = tested on: Proteus vulgaris 6897; test: Antibacterial activity, Heart Infusion Agar Dilution Method, Proteus vulgaris 6897; details: for MIC: pH 7.2, read-out: Minimum Inhibitory Concentration
Description: as §1

[13] = tested on: Proteus rettgeri KY4289; test: Antibacterial activity, Heart Infusion Agar Dilution Method, Proteus rettgeri KY4289; details: for MIC: Providencia rettgeri, pH 7.2, read-out: Minimum Inhibitory Concentration
Description: as §1

[14] = tested on: Staphylococcus aureus 209p; test: Antibacterial activity, Heart Infusion Agar Dilution Method, Staphylococcus aureus 209p; details: pH 7.2, read-out: Minimum Inhibitory Concentration
Description: as §1

[15] = tested on: Serratia marcescens T26; test: Antibacterial activity, Heart Infusion Agar Dilution Method, Serratia marcescens T26; details: pH 7.2, read-out: Minimum Inhibitory Concentration
[16] = tested on: Microorganism; test: Antimicrobial activity as shown in table (overall statement); details: as shown in table below
Description: as §1

[17] = Escherichia coli NIHJC2, Heart Infusion Agar Dilution, pH 7.2, read-out: Minimum Inhibitory Concentration
[18] = Escherichia coli Juhl, Heart Infusion Agar Dilution, pH 7.2, read-out: Minimum Inhibitory Concentration

Row | Compound | MIC [1, 17] | MIC [2] | MIC [3] | MIC [4] | MIC [5] | MIC [6, 18] | MIC [7] | MIC [8] | MIC [9] | MIC [10] | MIC [11] | MIC [12] | MIC [13] | MIC [14] | MIC [15] | also measured
1 | CO/N=C(\C(=O)N[C@@H]1C(=O)N2C(C(=O)O)=C[C@@H](C)C[C@H]12)c1csc(N)n1 (relative stereo) [Example 38, (±)-cis-7β-[2-(2-amino-4-thiazolyl)-2-syn-methoxyiminoacetamido]-4α-methyl-1-azabicyclo[4,2,0]oct-2-en-8-one-2-carboxylic acid] | ≤ 0.05 µg/mL | ≤ 0.05 µg/mL | ≤ 0.05 µg/mL | ≤ 0.05 µg/mL | 0.1 µg/mL (≈ 0.264 µM) | ≤ 0.05 µg/mL | 12.5 µg/mL (≈ 32.9 µM) | ≤ 0.05 µg/mL | ≤ 0.05 µg/mL | > 100 µg/mL | 12.5 µg/mL (≈ 32.9 µM) | ≤ 0.05 µg/mL | ≤ 0.05 µg/mL | 12.5 µg/mL (≈ 32.9 µM) |  | 
2 | CO/N=C(\C(=O)N[C@@H]1C(=O)N2C(C(=O)O)=CCC[C@H]12)c1csc(N)n1 (relative stereo) [Example 40, (±)-cis-7-[2-(2-amino-4-thiazolyl)-2-syn-methoxyiminoacetamido]-1-azabicyclo[4,2,0]oct-2-en-8-on-2-carboxylic acid] | ≤ 0.05 µg/mL | 0.1 µg/mL (≈ 0.274 µM) | ≤ 0.05 µg/mL | ≤ 0.05 µg/mL | ≤ 0.05 µg/mL | ≤ 0.05 µg/mL | 12.5 µg/mL (≈ 34.2 µM) | ≤ 0.05 µg/mL | ≤ 0.05 µg/mL | 50 µg/mL (≈ 137 µM) | 12.5 µg/mL (≈ 34.2 µM) | ≤ 0.05 µg/mL | ≤ 0.05 µg/mL | 12.5 µg/mL (≈ 34.2 µM) | 0.78 µg/mL (≈ 2.13 µM) | 
3 | CC(=O)O[C@@H]1C=C(C(=O)O)N2C(=O)[C@@H](NC(=O)Cc3cccs3)[C@H]2C1 (relative stereo) [Example 41, (±)-cis-7β-(2-thienylacetamido)4α-acetoxy-1-azabicyclo[4,2,0]oct-2-en-8-on-2-carboxylic acid] | 100 µg/mL (≈ 274 µM) | > 100 µg/mL | > 100 µg/mL | 25 µg/mL (≈ 68.6 µM) | > 100 µg/mL | 100 µg/mL (≈ 274 µM) | 12.5 µg/mL (≈ 34.3 µM) | > 100 µg/mL | > 100 µg/mL | > 100 µg/mL | 25 µg/mL (≈ 68.6 µM) | > 100 µg/mL | > 100 µg/mL | 3.12 µg/mL (≈ 8.56 µM) | > 100 µg/mL | 
4 | N[C@@H](C(=O)NC1C(=O)N2C(C(=O)O)=CCCC12)c1ccccc1 (single isomer, unassigned) [Example 26 A isomer] |  |  |  |  |  |  |  |  |  |  |  |  |  |  |  | Minimum Inhibitory Concentration ([1]; Escherichia coli NIHJC2, Heart Infusion Agar Dilution, pH 7.2): 50 µg/mL; Minimum Inhibitory Concentration ([3]; pH 7.2): 25 µg/mL; Minimum Inhibitory Concentration ([4]; pH 7.2): 50 µg/mL; Minimum Inhibitory Concentration ([5]; pH 7.2): 100 µg/mL; Minimum Inhibitory Concentration ([6]; Escherichia coli Juhl, Heart Infusion Agar Dilution, pH 7.2): 100 µg/mL; Minimum Inhibitory Concentration ([8]; pH 7.2): 50 µg/mL; Minimum Inhibitory Concentration ([9]; pH 7.2): 50 µg/mL; Minimum Inhibitory Concentration ([12]; pH 7.2): 25 µg/mL; Minimum Inhibitory Concentration ([13]; pH 7.2): 6.25 µg/mL
5 | CCN1CCN(C(=O)NC(C(=O)NC2C(=O)N3C(C(=O)O)=CCCC23)c2ccccc2)C(=O)C1=O (stereo in doubt) [Example 28, (±)-cis-7-[(R)-2-phenyl-2-(4-ethyl-2,3-dioxo-1-piperazinylcarbonylamino)acetamido]-1-azabicyclo[4,2,0]oct-2-en-8-one-2-carboxylic acid] | 1.56 µg/mL (≈ 3.23 µM) | 6.25 µg/mL (≈ 12.9 µM) | 1.56 µg/mL (≈ 3.23 µM) | 25 µg/mL (≈ 51.7 µM) | 3.12 µg/mL (≈ 6.45 µM) | 1.56 µg/mL (≈ 3.23 µM) | 3.12 µg/mL (≈ 6.45 µM) | 3.12 µg/mL (≈ 6.45 µM) | < 0.05 µg/mL | 100 µg/mL (≈ 207 µM) | 3.12 µg/mL (≈ 6.45 µM) | < 0.05 µg/mL | 6.25 µg/mL (≈ 12.9 µM) | 0.78 µg/mL (≈ 1.61 µM) | 25 µg/mL (≈ 51.7 µM) | antimicrobial activity (in words) [16]: strong antimicrobial activity
6 | Cc1nnc(SCC2=C(C(=O)O)N3C(=O)[C@@H](NC(=O)Cn4cnnn4)[C@H]3SC2)s1 [Cefazolin, reference compound] |  | > 100 µg/mL | 12.5 µg/mL (≈ 27.5 µM) | 3.12 µg/mL (≈ 6.86 µM) | 50 µg/mL (≈ 110 µM) |  | 0.78 µg/mL (≈ 1.72 µM) | > 100 µg/mL | 0.78 µg/mL (≈ 1.72 µM) | > 100 µg/mL | 0.4 µg/mL (≈ 0.88 µM) | 12.5 µg/mL (≈ 27.5 µM) | 25 µg/mL (≈ 55 µM) | < 0.05 µg/mL | > 100 µg/mL | MIC ([1]; Escherichia coli, NIHJC2, pH 7.2, read-out: Minimum Inhibitory Concentration): 1.56 µg/mL (≈ 3.43 µM); MIC ([6]; Escherichia coli, pH 7.2, read-out: Minimum Inhibitory Concentration): 1.56 µg/mL (≈ 3.43 µM)
7 | N[C@@H](C(=O)N[C@@H]1C(=O)N2C(C(=O)O)=CCC[C@H]12)c1ccccc1 [Example 26 B isomer] | 3.12 µg/mL (≈ 9.89 µM) | 100 µg/mL (≈ 317 µM) | 12.5 µg/mL (≈ 39.6 µM) | 3.12 µg/mL (≈ 9.89 µM) | 12.5 µg/mL (≈ 39.6 µM) | 3.12 µg/mL (≈ 9.89 µM) | 3.12 µg/mL (≈ 9.89 µM) | 50 µg/mL (≈ 159 µM) | 0.78 µg/mL (≈ 2.47 µM) |  | 6.25 µg/mL (≈ 19.8 µM) | 50 µg/mL (≈ 159 µM) | 12.5 µg/mL (≈ 39.6 µM) | 0.4 µg/mL (≈ 1.27 µM) |  | antimicrobial activity (in words) [16]: stronger antimicrobial activity than the more polar isomer
